Assay results as given in PMC5175178, “Development of an in-vivo active reversible butyrylcholinesterase inhibitor” (Scientific Reports, 2016).
Read-outs that look alike come from different tables or passages of the source.

Key:
mice [1] = experiment: Rotarod test, motor coordination; conditions: for Time spent on the rotarod (s ±SEM) 6 rpm / Time spent on the rotarod (s ±SEM) 18 rpm / Time spent on the rotarod (s ±SEM) 24 rpm: 60 min
Experimental: The mice had free access to food and water, and the ambient temperature and humidity of the room were kept constant throughout all of the tests. For the behavioral tasks, the mice were selected at random, and each group consisted of 8 to 10 mice dose^−1. The experiments were performed between 08:00 and 14:00. Immediately after these in-vivo assays, the animals were euthanized by cervical dislocation. […] All efforts were made to minimize the number of mice used and their suffering.
Before the test, the mice were trained for three consecutive days on the rotarod apparatus (Rotarod apparatus, May Commat RR0711, Turkey; rod diameter, 2 cm) that was rotating at a fixed speed of 18 rotations per minute (rpm). In each training session, the mice were put on the rotating rod for 3 min, with an unlimited number of trials. The correct experimentation was performed 24 h after the last training session. […] Motor impairments were defined as the inability to remain on the rotarod apparatus for 1 min, and were expressed as the mean time spent on the rotarod^36.

in vitro [2] = conditions: both, human, hepatocytes, pH 7.3
Experimental: (§1) The plasma metabolic stability and hepatic clearance were estimated by the substrate depletion method.
(§2) Cryopreserved hepatocytes (mixed gender and pool of 10 or more) were thawed, washed, and resuspended in Krebs-Heinslet buffer (pH 7.3). […] The reaction was stopped by adding acetonitrile into the incubation mixture. Samples were then mixed, transferred completely to another 96-well plate, and centrifuged. Supernatants were used for HPLC-MS/MS analysis. As reference substances, four compounds were tested in each assay. […] In the HPLC-MS/MS analysis peak areas corresponding to the test compounds were recorded. Metabolic stability, expressed as percentage of the parent compound remaining, was calculated by comparing the peak area of the compound at the time point relative to that at time 0. The half-life (t1/2) was estimated from the slope of the initial linear range of the logarithmic curve of the compound remaining (%) versus time, assuming first order kinetics. The apparent intrinsic clearance (Clint in µL/min/million cells) was calculated from the half-life according to the following formula:

in vitro [3] = conditions: human, plasma
Experimental: as §1
(§3) The incubation was performed in a 37 °C water bath for 2 h. An aliquot of the incubation mixture was transferred to acetonitrile at 0, 0.5, 1, 1.5 and 2 h, respectively. Samples were then mixed and centrifuged. Supernatants were used for HPLC-MS/MS analysis using selected reaction monitoring, and peak areas were recorded for each analyte. The HPLC conditions consisted of a binary LC pump with autosampler, a C18 column (2 × 20 mm), and gradient elution. The area of precursor compound remaining after each time points relative to the amount remaining at time zero, expressed as percent, is calculated. Subsequently, the half-life (t1/2) was estimated from the slope of the initial linear range of the logarithmic curve of the compound remaining (%) versus time, assuming first order kinetics.

SH-SY5Y cells = experiment: Cytotoxicity in SH-SY5Y cells, MTS cell viability assay; conditions: 48 h
Experimental: Prior to cell treatments, complete medium was replaced with reduced-serum medium (i.e., with 2% fetal bovine serum).
After 24 h (a) or 48 h (b), the cell viability was evaluated using the MTS assay. The control group (DMSO) was considered as 100% cell viability. Data are means ±SD of at least three independent experiments, each carried out in triplicate (a) and quadruplicate (b).
The cells were treated as described above, and cell viability was assessed after 48 h using the CellTiter 96 Aqueous One Solution Cell Proliferation Assay (Promega, Madison, WI, USA), according to the manufacturer instructions. […] The data are presented as percentages of the control (DMSO).

[4] = Caco-2 monolayer bidirectional permeability assay; conditions: human, Caco-2, Papp(A–B), apical-to-basolateral, 100 µM donor
Experimental: They were grown on Transwell® culture inserts with a polycarbonate membrane (diameter, 12 mm; pore size, 0.4 µm). 50,000 cells/filter membranes were used for seeding and the medium was changed every two days. At day 18, transepithelial electrical resistance (TEER) was measured for each filter with Caco-2 cell monolayers. […] The samples were acidified by dilution with the same volume of 0.01M HCl before fluorescence measurements.
Ringer buffer with 10 mM d-glucose or 10 mM mannitol on apical and basolateral side of the tissue, respectively, was used as an incubation saline. […] The stock solutions were added either to the apical or to the basolateral compartment to obtain bidirectional permeability measurements. Six samples were withdrawn in 20 min intervals. Each time 300 µl was taken from the 1500 µL basolateral acceptor compartment and 100 µL from the 500 µL apical acceptor compartment. These volumes were immediately replaced by the appropriate fresh incubation saline. […] All apparent permeability coefficients were calculated as described previously^24.

in vitro [5] = format: in vitro ADME; parameters: protein bound: dose or concentration left out as unconfirmed; conditions: for recovery at 4 h, 10 µM: human, pH 7.4, human plasma protein binding assay
Experimental: The experiment was accepted in accordance with Eurofins validation Standard Operating Procedure.
The equilibrium dialysis technique was used to separate the fraction of the bound to human plasma protein. The assay was performed in a 96-well format in a dialysis block constructed from Teflon to minimize the unspecific binding^25. Plasma from human was used as the default protein containing matrix. […] The dialysate compartment was loaded with the phosphate buffered saline (PBS, pH 7.4), and the sample side was loaded with equal volume of the spiked protein matrix. The dialysis plate was then sealed and incubated at 37 °C for 4 h. A control sample (n = 2) was prepared from the spiked protein matrix in the same manner as the assay sample (without dialysis). The control sample served as the basis for the recovery determination. After the incubation, samples were taken from each compartment, diluted with phosphate buffer followed by addition of acetonitrile and centrifugation. The supernatants were then used for HPLC-MS/MS analysis using selected reaction monitoring. The HPLC conditions consisted of a binary LC pump with autosampler, a C18 column (2 × 20 mm), and gradient elution.
Protein binding (%) = (Areap-Areab) / Areap ×100 (3),
Recovery (%) = (Areap-Areab) / Areac ×100 (4),
The recovery determination serves as an indicator of reliability of the calculated protein binding value. Low recovery would indicate that the test compound is lost during the course of the assay, most likely due to non-specific binding or degradation.

[6] = tested on: Aβ(1–42)-induced cytotoxicity in SH-SY5Y cells; experiment: Neuroprotection against Aβ(1–42)-induced cytotoxicity, PI flow cytometry; format: cell-based, human; conditions: 10 μM, 5 μM Aβ(1–42), 48 h
Experimental: Neurotoxicity induced by Aβ species (mainly Aβ(1–42)) is a contributor to the pathogenesis of neurodegeneration in AD[41]. […]. […] […].
Supplementary Figure 8. […]. […].
[…]; Sigma, St. Louis, MO, USA). […] SH-SY5Y cells were seeded into a 24-well culture plate (1.2 ×10^5/well) and next day, treated as described above. After 48 h treatment, cells were washed with pre-warmed PBS and further stained with PI solution (30 µM) for 15 min at 37 °C. Cells were then analyzed for cytotoxicity by flow cytometry on FACS Calibur (BD Bioscience, San Jose, CA, USA). The percentage of PI positive cells (PI^pos) was evaluated using FlowJo software (Ashland, OR, USA) and results are presented as a relative fold increase of PI^pos corresponding vehicle treatment (DMSO control).

Aβ1–42 aggregation = target: T1, Aβ1–42 aggregation (Homo sapiens, UniProt P05067); experiment: Aβ1–42 aggregation inhibition, thioflavin-T fluorometric assay; format: biochemical
T1 construct: Recombinant human HFIP-pretreated Aβ1–42 peptide (Merck Millipore, Darmstadt, Germany); purchased Merck Millipore, Darmstadt, Germany
T1 sequence (P05067 672-713): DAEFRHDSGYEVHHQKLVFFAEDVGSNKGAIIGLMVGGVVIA
Experimental: Recombinant human HFIP-pretreated Aβ1–42 peptide (Merck Millipore, Darmstadt, Germany) was dissolved in DMSO to give 75 μM stock solution. […]. The ThT emission of the Aβ1–42 began to rise after 4 h, reached a plateau after 20 h, and remained almost unchanged for an additional 28 h of incubation. The fluorescence intensities at the plateau in the absence and presence of the test compound were averaged, and the average fluorescence of the corresponding wells at t= 0 h was subtracted. […]

[7] = tested on: scopolamine-induced memory impairment in mice; experiment: Two-day radial arm water maze task, scopolamine-induced memory impairment; format: in vivo, C57BL/6J mice
Experimental: In this task incorrect arm entries (i.e., errors) are counted. […] The mice had free access to food and water, and the ambient temperature and humidity of the room were kept constant throughout all of the tests. For the behavioral tasks, the mice were selected at random, and each group consisted of 8 to 10 mice dose^−1. The experiments were performed between 08:00 and 14:00. Immediately after these in-vivo assays, the animals were euthanized by cervical dislocation. […] All efforts were made to minimize the number of mice used and their suffering.
C57BL/6J mice were subjected to the radial arm water maze paradigm^34,35. The main part of the apparatus (Panlab Harvard Apparatus, Spain) consists of a 6-arm maze in a pool filled with water to approximately 10 cm from the top, to be high enough to cover the hidden platform by about 0.5 cm, but also low enough that the visible platform was not covered. The pool was regularly cleaned of any debris left by the mice. The temperature of the water was kept constant during testing (23 ±1 °C). The tester remained in the same position throughout the testing, thus providing an additional visual cue for the mice.
On day 1, 15 trials were run in five blocks of three. Each trial lasted up to 60 s. The start arm was varied for each trial, with the goal arm remaining constant for a given individual for both days^34,35. For the first 12 trials, the platform was alternately visible, then hidden, and then hidden for the last three trials. On day 2, the mice (without drug treatment on this day) were run in the same manner as on day 1, but the platform was hidden for all of the trials. As errors have been reported to be the most sensitive measure in this assay^34, the number of errors (i.e., incorrect arm entries made) was counted in a 60 s time-frame. Incorrect arm entries occurred when the mouse selected an arm that was not the goal arm. Entries into the goal arm were not counted as errors, even if the platform was not located. An entry was considered to occur when all four legs of the mice had entered the alley completely. […] If the platform was not located within 60 s, the mice were gently guided through the water by placing a hand behind the animal to direct its swimming direction toward the platform. […] After that, the mouse was gently removed from the platform and thoroughly dried using cellulose paper before placing it back into its home cage under a heat source (a heat lamp).
For the statistical analysis of the data obtained, to minimize the impact of individual trial variability, each mouse error for the finding of the platform for three consecutive trials were averaged, giving five data points (5 trial blocks): T1 (trials 1–3), T2 (trials 4–6), T3 (trials 7–9), T4 (trials 10–12) and T5 (trials 13–15), separately for each day of testing.

mAChE = target: T2, mAChE (Mus musculus, UniProt P21836); experiment: In-vitro inhibitory activity against mAChE, method of Ellman; format: biochemical, murine
T2 construct: donated by Florian Nachon (IBS, Grenoble)
T2 sequence (P21836 32-614): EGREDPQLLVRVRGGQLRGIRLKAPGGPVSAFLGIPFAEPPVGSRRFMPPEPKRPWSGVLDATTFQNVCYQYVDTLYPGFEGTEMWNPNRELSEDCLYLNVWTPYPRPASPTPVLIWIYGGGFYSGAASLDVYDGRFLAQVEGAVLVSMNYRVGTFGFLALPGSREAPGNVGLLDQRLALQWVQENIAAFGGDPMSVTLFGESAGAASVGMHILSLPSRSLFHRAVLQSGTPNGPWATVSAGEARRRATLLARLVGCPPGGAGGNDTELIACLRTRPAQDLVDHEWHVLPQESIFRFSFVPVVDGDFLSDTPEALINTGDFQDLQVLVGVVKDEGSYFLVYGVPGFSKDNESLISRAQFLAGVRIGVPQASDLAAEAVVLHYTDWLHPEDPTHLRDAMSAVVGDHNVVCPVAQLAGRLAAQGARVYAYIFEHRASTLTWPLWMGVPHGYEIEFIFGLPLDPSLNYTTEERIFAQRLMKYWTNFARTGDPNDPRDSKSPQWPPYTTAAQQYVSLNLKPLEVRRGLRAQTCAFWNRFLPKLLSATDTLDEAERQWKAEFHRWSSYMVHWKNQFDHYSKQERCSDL
Experimental: The inhibitory potencies of the compounds against the ChEs were determined using the method of Ellman[32].
The enzyme solutions were prepared by dilution of the concentrated stocks in phosphate-buffered solution (0.1 M, pH 8.0). […] The reactions were started by addition of the substrate, at room temperature. The final content of the organic solvent (DMSO) was always 1%. […] To determine the blank value (b), phosphate-buffered solution replaced the enzyme solution. The initial velocity (v0) was calculated from the slope of the linear trend obtained, with each measurement carried out in triplicate. […] The compounds were added to each well at a final concentration of 10 μM. […] The initial velocities in the presence of the test compounds (vi) were calculated. The inhibitory potencies are expressed as the residual activities (RA = (vi – b) / (vo – b)). […] The IC50 values were obtained by plotting the residual enzyme activities against the applied inhibitor concentrations, with the experimental data fitted to Equation (1):
where X is the logarithm of the inhibitor concentration, and Y is the residual activity. For the fitting procedure, the Gnuplot software and an in-house python script were used.

mice [8] = experiment: Observation of acute cholinergic adverse effects; format: in vivo; conditions: even at 100 mg kg^−1
[9] = tested on: cryopreserved human hepatocytes; experiment: Metabolic stability in cryopreserved human hepatocytes; conditions: 1 µM
Experimental: as §1, §2

mice [10] = experiment: Locomotor activity test; conditions: 30 mg kg^–1 IP, 1 h before the assay
Text: Eight-week-old male Albino Swiss (CD–1 Krf) mice weighing from 18 g to 22 g were used in the passive avoidance task, and the locomotor activity and rotarod tests, and C57BL/6 J mice of the same age were used in the MWM and the RAWM tasks. […] The mice had free access to food and water, and the ambient temperature and humidity of the room were kept constant throughout all of the tests. For the behavioral tasks, the mice were selected at random, and each group consisted of 8 to 10 mice dose^−1. The experiments were performed between 08:00 and 14:00. Immediately after these in-vivo assays, the animals were euthanized by cervical dislocation. […] All efforts were made to minimize the number of mice used and their suffering.
Data are means ±SEM. The vehicle and the test compound were administered intraperitoneally, 1 h before the assay. Statistical analysis of the data was performed using repeated measures analysis of variance (ANOVA), followed by Bonferroni multiple comparisons.
The mouse locomotor activity (i.e., number of light-beam crossings) was measured during the next 30 min of the test^36.

[11] = tested on: cryopreserved human hepatocytes; experiment: Metabolite identification in cryopreserved human hepatocytes, LC-HRMS; conditions: 2 h with human cryopreserved hepatocytes
Experimental: The plasma metabolic stability and hepatic clearance were estimated by the substrate depletion method. Qualitative aspect of metabolic degradation was performed by metabolite identification using LC-high resolution mass spectrometry (HRMS). […] Principal Phase I (oxidative) and Phase II (conjugative) metabolites have been detected and characterized following previously described preocedure^27. […] Samples were taken at time 0 and the end of the incubation (2 h), respectively. A control sample (no test compound added) was also prepared and incubated for the same period of time. After the reaction was stopped by addition of acetonitrile, the supernatants were subjected to HPLC-MS analysis. Separation of analytes was achieved using Acquity HSS T3 column (100 × 2.1 mm, 1.8 µ, Waters). The sample solutions-supernatants (5 µL) were injected and eluted at a flow rate of 0.5 mL min^–1, using a linear gradient of mobile phase A (0.1% formic acid in water) and mobile phase B (0.1% formic acid in MeCN). […] Retention times and the respective MS and MS/MS spectra of the species detected in the incubated sample and not in time-zero or blank sample were identified and recorded.

[12] = tested on: scopolamine-induced memory impairment in mice; experiment: Morris water maze task, scopolamine-induced memory impairment
Experimental: In this task the time taken to reach the hidden platform (i.e., the escape latency time), the distance travelled, and the mean speed of swimming are recorded for each experimental group. […] For the behavioral tasks, the mice were selected at random, and each group consisted of 8 to 10 mice dose^−1. The experiments were performed between 08:00 and 14:00. Immediately after these in-vivo assays, the animals were euthanized by cervical dislocation. […] All efforts were made to minimize the number of mice used and their suffering.
The Morris water maze is a circular, plastic, grey-painted pool (diameter, 120 cm; height, 60 cm), filled with water (up to about 48 cm below the edge, to prevent an animal from jumping out) that was maintained at 23 ±1 °C. The pool was divided into four equal quadrants (compass locations: NE, NW, SE, SW) by a computerized video tracking system (SMART, ver. 3.0; Panlab, Spain). An escape platform (diameter, 11 cm; height, 47 cm) at a fixed location (the center of the NW quadrant; i.e., the target quadrant). The escape platform was made of transparent Plexiglas and was immersed 1 cm under the surface of water; this was invisible to the swimming mouse. The maze was lighted with the intensity of 45 lx.
During the spatial acquisition trial (six consecutive days), the mice were assigned to training sessions (four training sessions a day; 4 h apart) in which the mice were trained to escape from the water by reaching the hidden platform, the location of which could be identified using distal extra-maze cues (A4-sized sheets of black laminated paper with colored geometric symbols) attached to the room walls to provide navigation points^31. Visual cues had different colors and dimensions, and were kept constant during the whole experiment^31,32. The whole experiment was conducted by an experimenter who remained always stationary in a constant location, thus serving as an additional distal cue for the swimming mice. […] The time taken to reach the hidden platform (escape latency time), distance travelled to reach the platform, and mean speed were recorded in each experimental group and analyzed.
On the seventh day (24 h after the last training) the platform was removed from the pool and a probe trial was performed (without drug treatment). Each animal was released from a different start point and was allowed to swim for 60 s. […] Latency time to the first crossing of the former platform location (target zone), number of crossings of the target zone, time spent in the target NW quadrant, total distance, distance spent in NW quadrant, entries into the NW quadrant, and mean speed were measured^31.

[13] = tested on: scopolamine-induced memory impairment in mice; experiment: Passive avoidance task, scopolamine-induced memory impairment; format: in vivo, Albino Swiss (CD–1 Krf) mice
Experimental: The first behavioral test performed was the passive avoidance (PA) task, which allows the evaluation of the effects of a drug on fear-motivated contextual memory. […] In the passive avoidance task, better memory performance is determined according to a longer step-through latency in the retention trial (i.e., the testing phase) than in the acquisition trial (i.e., the conditioning phase). […] The mice had free access to food and water, and the ambient temperature and humidity of the room were kept constant throughout all of the tests. For the behavioral tasks, the mice were selected at random, and each group consisted of 8 to 10 mice dose^−1. The experiments were performed between 08:00 and 14:00. Immediately after these in-vivo assays, the animals were euthanized by cervical dislocation. […] All efforts were made to minimize the number of mice used and their suffering.
The effect of the test compounds on acquisition and retention in the passive avoidance task was conducted accordingly to a previously described method^30. For this purpose, the passive avoidance apparatus was used (Panlab Harvard Apparatus, Spain).
The testing phase was conducted 24 h after the acquisition phase. For the acquisition, each mouse was initially placed for 30 s in the light compartment (exploration period; guillotine gate closed). At the end of the exploration period the guillotine door between the light and the dark compartments was opened and the time elapsed before entering the black chamber was recorded. As soon as the mouse entered the dark compartment, the door automatically closed and an electrical shock (current intensity: 0.2 mA, duration: 2 s) was delivered through the grid floor.
For the retention trial (drug off), the mice were placed in the illuminated white compartment again, and the latency time between door opening and entry into the dark compartment was recorded for each mouse. […] Better memory performance was indicated by longer latency before entry into the black chamber in the test (retention) phase than in the conditioning (acquisition) phase.

[14] = human plasma, 10 µM, 37 °C, 4 h
[15] = probe trial day 7, scopolamine + 30 mg kg^–1

Experimental for Human plasma stability: as §1, §3

## COCCN(CC1CCCN(Cc2ccccc2)C1)S(=O)(=O)c1ccc2ccccc2c1 (racemic) [compound 2, (±)-N-((1-benzylpiperidin-3-yl)methyl)-N-(2-methoxyethyl)naphthalene-2-sulfonamide]
Mice [1]; 30 mg kg^-1 IP
  Time spent on the rotarod (s ±SEM) 6 rpm: 60.0 s
  Time spent on the rotarod (s ±SEM) 18 rpm: 60.0 s
  Time spent on the rotarod (s ±SEM) 24 rpm: 60 s
Mice [1]; 100 mg kg^-1 IP
  Time spent on the rotarod (s ±SEM) 6 rpm: 60.0 s
  Time spent on the rotarod (s ±SEM) 18 rpm: 53.3 ± 6.8 s
  Time spent on the rotarod (s ±SEM) 24 rpm: 52.3 ± 6.8 s
Mice [1]; even at 100 mg kg^−1
  impact on motor coordination: did not induce motor deficits
In vitro [2]
  half-life at 1 µM: 0.928 h
In vitro [3]
  half-life at 1 µM: > 2 h
SH-SY5Y cells
  LD50 SH-SY5Y cells: 31.40 µM
[4]
  Papp A→B at 120 min, 100 µM: 30 ± 10.7 ×10⁻⁶ cm/s
In vitro [5]; human blood plasma, equilibrium dialysis
  protein bound: 96%
In vitro [5]; [14]
  Protein Bound (%) 1st: 96.0%
  Protein Bound (%) 2nd: 95.3%
  Protein Bound (%) Mean: 96%
In vitro [5]; read-out: Recovery (%) 1st
  recovery at 4 h, 10 µM: 101%
In vitro [5]; read-out: Recovery (%) 2nd
  recovery at 4 h, 10 µM: 99%
In vitro [5]; read-out: Recovery (%) Mean
  recovery at 4 h, 10 µM: 100%
[6]
  neuroprotective effect on Aβ(1–42)-induced cell death: reversed Aβ(1–42)-induced cell death
Aβ1–42 aggregation; 10 μM
  Aβ(1–42) aggregation inhibition: did not inhibit Aβ(1–42) aggregation
Aβ1–42 aggregation; 10 μM compound, 1.5 μM Aβ1–42, read-out: Percent inhibition ±SEM (%) ThT
  inhibition at 10 µM: -4.89%
[7]; scopolamine + 30 mg kg^−1
  errors at the end of the acquisition phase (day 1): < 1 error
[7]; scopolamine + 30 mg kg^−1 on day 1
  errors in the last trial block of day two: < 1 error
mAChE; residual activity at 10 μM, %RA > 75% was considered as no inhibition, Table 1
  %RA at 10 µM ±SEM mAChE: 97% ± 2%
mAChE; residual activity at 10 µM, %RA >75% was considered no inhibition, Supplementary Table 1
  %RA at 10 µM ±SEM mAChE: 97% ±2%
Mice [8]
  acute cholinergic adverse effects: no acute cholinergic adverse effects
[9]
  Half-Life t1/2 (min) 2nd: 51.7 min
  Half-Life t1/2 (min) Mean: 54 min
[9]; third replicate column
  Half-Life t1/2 (min) 2rd: 55.6 min
Mice [10]
  locomotor activity of mice: transient reduction in the locomotor activity
[11]
  possible metabolites identified with LC-HRMS: N-debenzylated, demethylated, and a demethylated + glucoronide products
[12]; day 3, scopolamine + 30 mg kg^−1
  distance travelled to reach the platform: 5.38 m
[12]; day 5, scopolamine + 30 mg kg^−1
  distance travelled to reach the platform: 1.69 m
[12]; [15]
  Distance in goal quadrant (% ±SEM): 45.35 ±2.6 F[2,25] = 0.2035; NS %
  Entries in zone NW (n ±SEM): 7.3 ±0.7 F[2,25] = 14.59; p <0.0001 n
  Latency time (s ±SEM): 1.2 ±0.4 F[2,25] = 1.792; NS s
  Number of NW zone crossings (n ±SEM): 2.6 ±0.5 F[2,25] = 2.182; NS n
  Time in target (NW) quadrant (s ±SEM): 29.3 ±1.5 F[2,25] = 0.8737; NS s
  Total distance covered (m ±SEM): 11.5 ±0.6 F2,25] = 0.3439; NS m
[12]; scopolamine + compound 2 30 mg kg^−1 (vehicle 0.17)
  mean speed of swimming: 0.16 m s^−1
Human plasma stability; discussion
  half-life in human plasma: > 2 h
Human plasma stability; human plasma, 1 µM, 37 °C
  Half-Life t1/2 (min) 1st: 223.1 min
  Half-Life t1/2 (min) 2nd: 206.7 min
  Half-Life t1/2 (min) Mean: >120 min
[13]; 10 mg kg^−1 IP before scopolamine 1 mg kg^−1
  step-through latency, retention trial: 70 s
[13]; 20 mg kg^−1 IP before scopolamine 1 mg kg^−1
  step-through latency, retention trial: 58 s
[13]; 30 mg kg^−1 IP before scopolamine 1 mg kg^−1
  step-through latency, retention trial: 102 s
